# Measurements published in PMC5068747, “Using C. elegans Forward and Reverse Genetics to Identify New Compounds with Anthelmintic Activity” (PLoS Neglected Tropical Diseases, 2016).
# Key:
# [1] = system: C. elegans VC3635 (pink-1 gk3615, D19 resistant); experiment: IC50 on CID 2747322 resistant C. elegans strain VC3635; type: in vivo, Caenorhabditis elegans; conditions: Caenorhabditis elegans, 120 h; 5 days exposure, 2 L4 per well, three biological replicates
# Protocol: All compound libraries were stored in 96-well plates, with 80 drugs per plate (columns 1 and 12 left empty). A BioGrid BG600 pinning robot (Digilab / BioRobotics) was used for compound transfer. The robot uses a 96-pin tool (0.7 mm dia.) to transfer a nominal volume of 340 nL of compound. For retesting, compounds were hand pinned from the original library plates to assay plates using a single 0.7 mm dia. pin. The assay plates were 96-well clear flat-bottom microplates containing 2% χ1666 E.coli bacteria in 0.5X Liquid Nematode Growth Media (LNGM) plus cholesterol (Bacteria were mass-grown in rich media, and harvested by centrifugation to produce a thick paste of bacterial cells that was kept frozen at -20°C. Cells were resuspended at 2% W/V in 0.5X LNGM to produce liquid worm food). Using a COPAS Biosort (Union Biometrica), two L4 to young adult stage VC2010 worms were added to each well of the plate in a final volume of 45 μL. After five days of exposure to the compounds, the plates were scanned and the data analyzed. A five day time period was chosen to be able to observe effects over all stages of the life cycle and through at least one round of replication. The initial proof-of-principle primary screen was performed manually using a dissecting microscope. Phenotypes scored included decreased motility, reduced brood size, and/or death as described previously. For high throughput screening of the Chembridge and Maybridge compound libraries we used the program WormScan, which was adapted for screening 96-well flat-bottom LNGM plates. Using WormScan it was possible to screen four 96-well plates at a time. Plates were scanned twice, at a resolution of 1200 dots per inch, 16-bit grayscale, producing a jpeg image. The light intensity produced by the scanner was sufficient to cause negative phototaxis equivalent to a physical stimulus for mortality determination. The time required to scan four 96-well plates using an Epson Perfection V700 Photo Scanner was less than ten minutes. The time to screen a single plate was less than 1.2 minutes, with less than ten seconds between scans.
# WormScan was used to screen for the same phenotypes as in the manual screen (reduced brood size, reduced behavior/motility response and increased mortality). Two sequential scans for each 96-well plate were aligned to a reference region of interest (ROI). Image analysis was based on a difference image score calculated for each ROI. The difference image score (WormScan score) was normalized using a “percent of control” method to derive a normalized WormScan score. […] Wild-type growth in 1% DMSO (Fig 1A) results in a normalized WormScan score of 100. Exposure to 50 nM ivermectin gives a score of 0 (Fig 1C), and complete absence of worms gives a score of 0 (Fig 1D). For the primary screen the WormScan score was calculated using custom macro scripts written for Fiji. For secondary screening and any subsequent studies the WormScan score was calculated using a standalone Java program (See supplemental). Probit regression of mortality was calculated using Mathematica 8.0.
# A standard ethyl methanesulfonate (EMS) mutagenesis protocol was carried out using VC2010 in order to generate mutants resistant to CID 2747322 exposure. First larval stage (L1) F2 progeny of mutagenized P0s were exposed to CID 2747322 at 200 μM in liquid worm food in 24-well tissue culture plates for five days at room temperature, and two independently isolated resistant lines (VC3614 and VC3615) were identified. […]
# [2] = system: S. cerevisiae yeast strain BY4743; experiment: Yeast growth rate (OD600) dose titration; type: cell-based; conditions: Saccharomyces cerevisiae; BY4743, YPD, growth rate reduced by 50%
# Protocol: The S. cerevisiae yeast strain BY4743 (MATa/α his3Δ1/his3Δ1 leu2Δ0/leu2Δ0 LYS2/lys2Δ0 met15Δ0/MET15 ura3Δ0/ura3Δ0) was used for all yeast experiments and was grown using yeast extract peptone dextrose (YPD) media at pH 7 [52]. BY4743 was grown overnight to initial log phase and was then grown with the compound identified in the C. elegans assay. The growth rate was quantified by continuously monitoring the optical density of the liquid yeast growth at OD600. The compound was screened in a dose-titration in YPD as described. The IC50 was the concentration required to reduce the growth rate or Average G value by 50% compared to a vehicle control (2% DMSO).
# [3] = system: C. elegans DA1316 (avr-14(ad1302); avr-15(vu227); glc-1(pk54), ivermectin resistant); experiment: IC50 on ivermectin resistant C. elegans strain; type: in vivo, Caenorhabditis elegans; conditions: Caenorhabditis elegans, 120 h; 5 days exposure, 2 L4 per well, three biological replicates
# [4] = system: C. elegans pink-1 mutant strains; experiment: Resistance of pink-1 mutant strains (MMP / knockout) to CID 2747322; type: in vivo, Caenorhabditis elegans
# [5] = system: C. elegans CB193 (unc-29(e193), levamisole resistant); experiment: IC50 on levamisole resistant C. elegans strain; type: in vivo, Caenorhabditis elegans; conditions: Caenorhabditis elegans, 120 h; 5 days exposure, 2 L4 per well, three biological replicates
smiles,measurement,setting,value
"COc1ccc(OCCNC(=O)c2ccccc2C(F)(F)F)cc1 [CID 2747322, N-[2-(4-methoxyphenoxy)ethyl]-2-(trifluoromethyl)benzamide]",IC50,[1],> 500 µM
same,IC50,[2],> 1000 µM
same,IC50,[3],16 µM
same,Resistance,"[4]; strain RB2547, pink-1 Knockout",none
same,Resistance,"[4]; strain VC20205, pink-1 W562stop",none
same,Resistance,"[4]; strain VC20423, pink-1 V373I",none
same,Resistance,"[4]; strain VC20470, pink-1 E162K",none
same,Resistance,"[4]; strain VC20521, pink-1 P226S",sensitive
same,Resistance,"[4]; strain VC20546, pink-1 P32L",sensitive
same,Resistance,"[4]; strain VC20588, pink-1 A628T",none
same,Resistance,"[4]; strain VC30104, pink-1 Knockout",none
same,Resistance,"[4]; strain VC30182, pink-1 G415E",none
same,Resistance,"[4]; strain VC40096, pink-1 M1I",none
same,Resistance,"[4]; strain VC40194, pink-1 D378N",resistant
same,Resistance,"[4]; strain VC40287, pink-1 S341N",resistant
same,Resistance,"[4]; strain VC40373, pink-1 A365T",none
same,Resistance,"[4]; strain VC40385, pink-1 L232F",resistant
same,Resistance,"[4]; strain VC40392, pink-1 T65I",none
same,Resistance,"[4]; strain VC40527, pink-1 V334I",none
same,Resistance,"[4]; strain VC40694, pink-1 M556L",resistant
same,Resistance,"[4]; strain VC40738, pink-1 E353K",none
same,Resistance,"[4]; strain VC41008, pink-1 L180F",resistant
same,IC50,[5],14 µM
